Experiments:
MX-1 [1] = experiment: Methylene Blue Cell Growth Inhibition Assay, MX-1; type: cell-based; conditions: Homo sapiens, MX1, 72 h, read-out: MEB MX-1 IC50
P388 = experiment: Cell-Titer Glo Cell Growth Inhibition Assay, P388; type: cell-based, murine; conditions: Mus musculus, CellTiter-Glo, 72 h, read-out: CTG P388 IC50
Experimental: (§1) A549-L (human lung), BT474 (human breast), Colo 205 (human colon), H1299 (human lung), Hela (human cervix), HCT-116 (human colon), HN5 (human head and neck), HT29 (human colon), LNCap (human prostate), MCF7 (human breast), MDA-MB468 (human breast), MX-1 (human breast), RPMI 8226 (human peripheral blood), SKOV3 (human ovary) and P388 (murine leukemia) cell lines were cultured in RPMI1640 containing 10% fetal bovine serum at 37° C. in a 5% CO2 incubator. Cell lines were split into T75 flasks (Falcon #353136) two to three days prior to assay set up at density which yields approximately 70-80% confluency at time of harvest for assay. Cells were harvested using 0.25% trypsin with EDTA (Glibco/Invitrogen #25200-056), Cell counts were performed on cell suspensions using Trypan Blue exclusion staining, cells were then plated in 105 uL of culture media per well at the following densities in 96 well Costar #3916 black flat bottom plates: All human cell lines were plated at 500 cells/well. P388 were plated at 250 cells/well. All plates were placed at 5% CO2 37° C. overnight and then test compounds were added the following day. One plate of each cell type is treated with CellTiter-Glo (Promega #G7573) for a day 0 proliferation measurement and read as described below. The test compounds are prepared in clear U bottom polypropylene 96 well plates (Falcon #35-1190 with consecutive two fold dilutions. 9 uL of these dilutions was added into each well of the cell plates. The final concentration of DMSO in all wells is 0.15%. Cells were incubated at 37° C., 5% CO2 for 72 h. Following 72 h of incubation with compounds each plate was developed and read. CellTiter-Glo reagent was added to assay plates using a volume equivalent to the cell culture volume in the wells. Plates were shaken for approximately two minutes and incubated at room temperature for approximately 15 min and the chemiluminescent signal is read on the Victor V or Envison 2100 reader. […] Concentration of compound that inhibited 50% of cell growth (IC50) was analysis by 4 or 6 parameter fit of data using XLfit, value of no cell addition was subtracted from all samples for background.

SKOV3 = experiment: Cell-Titer Glo Cell Growth Inhibition Assay, SKOV-3; type: cell-based; conditions: Homo sapiens, SK-OV-3, CellTiter-Glo, 72 h, read-out: CTG SKOV-3 IC50
Experimental: as §1

MX-1 [2] = experiment: Cell-Titer Glo Cell Growth Inhibition Assay, MX-1; type: cell-based; conditions: Homo sapiens, MX1, CellTiter-Glo, 72 h, read-out: CTG MX-1 IC50
Experimental: as §1

[3] = Intravenous pharmacokinetics in CD-1 mouse; type: in vivo; conditions: plasma, iv bolus, male CD-1 mouse, dose 1.9-7.4 mg/kg per compound (Table 3); for clearance: read-out: Plasma CL

Row | Compound | IC50 (MX-1 [1]) | IC50 (P388) | IC50 (SKOV3) | IC50 (MX-1 [2]) | AUC(0-t) [3] | clearance [3]
1 | C[C@@H](Oc1cc(-n2cnc3cc(-c4ccc(N5CCNCC5)nc4)ccc32)sc1C(N)=O)c1ccccc1C(F)(F)F [Example 1, 5-{5-[6-(1-piperazinyl)-3-pyridinyl]-1H-benzimidazol-1-yl}-3-({(1R)-1-[2-(trifluoromethyl)phenyl]ethyl}oxy)-2-thiophenecarboxamide] | 100 to 1000 nM | 100 to 1000 nM | 100 to 1000 nM | < 100 nM | 3420 ng·h/mL | 23.5 mL/min/kg
2 | C[C@@H](Oc1cc(-n2cnc3cc(-c4ccc(N5CCNCC5)nc4)ccc32)sc1C(N)=O)c1ccccc1Cl [Example 7, 3-{[(1R)-1-(2-Chlorophenyl)ethyl]oxy}-5-{5-[6-(1-piperazinyl)-3-pyridinyl]-1H-benzimidazol-1-yl}-2-thiophenecarboxamide] |  | < 100 nM | 100 to 1000 nM | 100 to 1000 nM | 3740 ng·h/mL | 33 mL/min/kg
3 | C[C@@H](Oc1cc(-n2cnc3cc(-c4cnn(C)c4)ccc32)sc1C(N)=O)c1ccccc1Cl [Example 9, 3-{[(1R)-1-(2-Chlorophenyl)ethyl]oxy}-5-[5-(1-methyl-1H-pyrazol-4-yl)-1H-benzimidazol-1-yl]-2-thiophenecarboxamide] | < 100 nM | 100 to 1000 nM | < 100 nM | < 100 nM | 5760 ng·h/mL | 12.1 mL/min/kg

Source: patent US20080214563A1, “Benzimidazole Thiophene Compounds As Plk Modulators” (priority 2005, published 2008)
